# Like-named read-outs stand apart in the source and are kept apart here.
# Key:
# [1] = molecular target: VIM-1 (Pseudomonas aeruginosa (strain ATCC 15692 / DSM 22644 / CIP 104116 / JCM 14847 / LMG 12228 / 1C / PRS 101 / PAO1), UniProt A0A0F7KYQ8); assay: biochemical; conditions: CCF2-FA substrate, 30 pM enzyme, 2 hours at 25° C.
# In short: (§1)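 Enzyme activity was measured by fluorescence using CCF2-FA, a cephalosporin-linked 7-hydroxycoumarin/fluorescein substrate, with inhibitor, metallo-β-lactamase and substrate incubated together for 2 hours at 25° C. IC50 came from a 4-parameter fit of inhibition versus log inhibitor concentration.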
# [2] = test system: Pseudomonas aeruginosa efflux+ (MB9798), IMP-1; type: cell-based; conditions: concentration restoring susceptibility to imipenem at 2 μg/mL in the presence of a class A, C, D serine β-lactamase inhibitor closely related to relebactam
# In short: (§2)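 Steps: add fixed imipenem and/or ceftazidime (usually CLSI breakpoint) and fixed AmpC-directed class A/C inhibitor to microbroth MIC wells; titrate MBL inhibitor; record concentration regaining susceptibility for each PAO1-derived strain; divide efflux+ by efflux− value.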
# [3] = molecular target: IMP-1 (Serratia marcescens, UniProt P52699); assay: biochemical; type: biochemical; conditions: fluorescence assay, CCF2-FA substrate, 2 pM enzyme, 2 hours at 25° C.; read-out: IMP-1 IC50
# In short: as §1
# [4] = molecular target: NDM-1 (Klebsiella pneumoniae, UniProt C7C422); assay: biochemical; type: biochemical; conditions: fluorescence assay, CCF2-FA substrate, 1 pM enzyme, 2 hours at 25° C.; read-out: NDM-1 IC50
# In short: as §1
# [5] = test system: Pseudomonas aeruginosa MB9798 vs MB9799; conditions: ratio MITC95 PA_9798/MITC95 PA_9799
# In short: as §2
# [6] = test system: Pseudomonas aeruginosa efflux− (MB9799), IMP-1; type: cell-based; conditions: concentration restoring susceptibility to imipenem at 2 μg/mL in the presence of a class A, C, D serine β-lactamase inhibitor closely related to relebactam
# In short: as §2
# [7] = test system: Serratia marcescens expressing IMP-1 (CL5741); type: cell-based; conditions: with imipenem 1 μg/ml; 95% inhibition of bacterial growth
# In short: (§3)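 Imipenem 1 μg/ml + inhibitor; MBL-expressing clinical strains in 1.1×CAMHB, inoculum from saline suspension diluted 1:100; 35° C, 22–24 h; absorbance read-out.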
# [8] = test system: Klebsiella pneumoniae expressing VIM-1 (IHMA599644); type: cell-based; conditions: with imipenem 1 μg/ml; 95% inhibition of bacterial growth
# In short: as §3
# [9] = test system: Escherichia coli expressing NDM-1 (CLB30005, CLB30016); type: cell-based; conditions: with imipenem 1 μg/ml; 95% inhibition of bacterial growth
# In short: as §3
# [10] = fluorescence assay, read-out: VIM-1 IC50
# Chain of NDM-1 (C7C422 whole entry, looked up, species assumed): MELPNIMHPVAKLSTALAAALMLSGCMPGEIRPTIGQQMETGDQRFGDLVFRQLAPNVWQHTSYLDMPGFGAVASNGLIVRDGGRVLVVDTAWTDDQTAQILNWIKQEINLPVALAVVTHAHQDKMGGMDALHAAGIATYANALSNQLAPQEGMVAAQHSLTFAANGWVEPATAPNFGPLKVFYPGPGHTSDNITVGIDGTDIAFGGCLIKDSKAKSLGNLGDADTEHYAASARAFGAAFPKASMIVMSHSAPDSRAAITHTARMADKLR
# Chain of IMP-1 (P52699 whole entry, looked up, species assumed): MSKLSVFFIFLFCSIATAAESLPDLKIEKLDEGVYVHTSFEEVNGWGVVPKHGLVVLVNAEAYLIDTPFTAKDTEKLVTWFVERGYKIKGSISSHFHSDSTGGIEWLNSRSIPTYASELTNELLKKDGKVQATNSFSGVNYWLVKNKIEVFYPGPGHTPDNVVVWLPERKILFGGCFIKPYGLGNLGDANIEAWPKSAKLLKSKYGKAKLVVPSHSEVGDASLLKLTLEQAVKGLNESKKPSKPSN
SMILES,"IC50 [1, 10]","P. aeruginosa expressing IMP-1, efflux + (MB9798) MITC95 [2]",IC50 [3],IC50 [4],Efflux ratio [5],"P. aeruginosa expressing IMP-1, efflux − (MB9799) MITC95 [6]",Serratia marcescens expressing IMP-1 (CL5741) MITC95 [7],Klebsiella pneumoniae expressing VIM-1 (IHMA599644) MITC95 [8],Escherichia coli expressing NDM-1 (CLB30016) MITC95 [9],"IC50 ([1]; VIM-1 IC50, fluorescence assay)"
"NCCNC(=O)c1cccc(-c2ccc(S(=O)(=O)NCCN)c(S(N)(=O)=O)c2-c2nn[nH]n2)c1N [Example 204, 2-amino-N-(2-aminoethyl)-4′-(N-(2-aminoethyl)sulfamoyl)-5′-sulfamoyl-6′-(2H-tetrazol-5-yl)biphenyl-3-carboxamide]",0.226 nM,0.7813 µM,2.56 nM,0.52 nM,1.00,0.7813 µM,1.563 µM,1.563 µM,1.563 µM,–
"Nc1nc2c(-c3ccc(S(=O)(=O)N4CC[C@@H](F)[C@H](N)C4)c(S(N)(=O)=O)c3-c3nn[nH]n3)cccc2[nH]1 [Example 205, 3-(2-amino-1H-benzo[d]imidazol-4-yl)-6-(((3R,4R)-3-amino-4-fluoropiperidin-1-yl)sulfonyl)-2-(2H-tetrazol-5-yl)benzenesulfonamide]",3.63 nM,12.5 µM,5.89 nM,1.2 nM,8.00,1.563 µM,3.125 µM,3.125 µM,1.563 µM,–
"Nc1nc2c(-c3ccc(S(=O)(=O)NCC4COCCN4)c(S(N)(=O)=O)c3-c3nn[nH]n3)cccc2[nH]1 (stereo not drawn) [Example 206, 4-(2-amino-1H-benzo[d]imidazol-4-yl)-N1-(morpholin-3-ylmethyl)-3-(2H-tetrazol-5-yl)benzene-1,2-disulfonamide]",–,3.125 µM,0.498 nM,0.0729 nM,2.00,1.563 µM,1.563 µM,1.563 µM,0.3906 µM,0.211 nM
"Nc1nc2c(-c3ccc(S(=O)(=O)NCC4CCN4)c(S(N)(=O)=O)c3-c3nn[nH]n3)cccc2[nH]1 (stereo not drawn) [Example 207, 4-(2-amino-1H-benzo[d]imidazol-4-yl)-N1-(azetidin-2-ylmethyl)-3-(2H-tetrazol-5-yl)benzene-1,2-disulfonamide]",–,3.125 µM,0.999 nM,0.274 nM,2.00,1.563 µM,1.563 µM,3.125 µM,3.125 µM,0.69 nM
"C[C@H](N)CC(=O)NS(=O)(=O)c1ccc(-c2cccc3[nH]c(N)nc23)c(-c2nn[nH]n2)c1S(N)(=O)=O [Example 208, (S)-3-amino-N-((4-(2-amino-1H-benzo[d]imidazol-4-yl)-2-sulfamoyl-3-(2H-tetrazol-5-yl)phenyl)sulfonyl)butanamide]",1.23 nM,3.125 µM,3.12 nM,0.449 nM,1.00,3.125 µM,3.125 µM,6.25 µM,1.563 µM,–
"Nc1ncccc1-c1ccc(S(=O)(=O)N[C@@H]2CCNC2)c(S(N)(=O)=O)c1-c1nn[nH]n1 [Example 209, (R)-4-(2-aminopyridin-3-yl)-N^1-(pyrrolidin-3-yl)-3-(2H-tetrazol-5-yl)benzene-1,2-disulfonamide]",0.177 nM,1.563 µM,3.1 nM,0.148 nM,1.33,1.172 µM,0.7813 µM,1.563 µM,0.293 µM,–
"NCC(CN)NS(=O)(=O)c1ccc(-c2cccnc2N)c(-c2nn[nH]n2)c1S(N)(=O)=O [Example 210, 4-(2-aminopyridin-3-yl)-N1-(1,3-diaminopropan-2-yl)-3-(2H-tetrazol-5-yl)benzene-1,2-disulfonamide]",0.197 nM,3.125 µM,1.5 nM,0.126 nM,2.00,1.563 µM,0.7813 µM,3.125 µM,0.1953 µM,–
"CC(C)(CN)NS(=O)(=O)c1ccc(-c2cccnc2N)c(-c2nn[nH]n2)c1S(N)(=O)=O [Example 211, N1-(1-amino-2-methylpropan-2-yl)-4-(2-aminopyridin-3-yl)-3-(2H-tetrazol-5-yl)benzene-1,2-disulfonamide]",0.182 nM,12.5 µM,2.25 nM,0.156 nM,4.00,3.125 µM,3.125 µM,6.25 µM,1.563 µM,–
"NC[C@H](N)CNS(=O)(=O)c1ccc(-c2cccnc2N)c(-c2nn[nH]n2)c1S(N)(=O)=O [Example 213, (S)-4-(2-aminopyridin-3-yl)-N1-(2,3-diaminopropyl)-3-(2H-tetrazol-5-yl)benzene-1,2-disulfonamide]",0.113 nM,3.125 µM,1.54 nM,0.0759 nM,2.00,1.563 µM,0.7813 µM,1.563 µM,0.3906 µM,–
"Nc1ncccc1-c1ccc(S(=O)(=O)NC[C@@H](N)CO)c(S(N)(=O)=O)c1-c1nn[nH]n1 [Example 214, (R)-N1-(2-amino-3-hydroxypropyl)-4-(2-amino-pyridin-3-yl)-3-(2H-tetrazol-5-yl)benzene-1,2-disulfonamide]",0.732 nM,12.5 µM,8.49 nM,0.566 nM,8.00,1.563 µM,1.563 µM,3.125 µM,0.7813 µM,–
"NC[C@H](CO)NS(=O)(=O)c1ccc(-c2cccnc2N)c(-c2nn[nH]n2)c1S(N)(=O)=O [Example 215, (R)-N1-(1-amino-3-hydroxypropan-2-yl)-4-(2-aminopyridin-3-yl)-3-(2H-tetrazol-5-yl)benzene-1,2-disulfonamide]",0.222 nM,1.563 µM,2.12 nM,0.175 nM,1.00,1.563 µM,0.3906 µM,3.125 µM,0.1953 µM,–

# — US10221163B2 (priority 2015, dated 2019)
